# Test results taken from patent US11630106B2, “Diagnostic test for distinguishing the smoking status of a subject” (PHILIP MORRIS PRODUCTS S.A., priority 2017, dated 2023).
# Like-named read-outs stand apart in the source and are kept apart here.
# Columns and labels:
# [1] = mice; cited from earlier work
# [2] = cited from earlier work
# [3] = cited from earlier work; remark: listed apart in the source
# [4] = 24-hour urine, cited from earlier work
# [5] = Randomized, controlled, open-label, 3-arm study (CC, SA, SW): total NNAL, CEMA and free cotinine measured in urine; type: in vivo, human; settings: for Free Cotinine (ng/mL) SA: SA arm; for concentration at 2 day: human, inhaled
# Source text: The study included healthy smokers switching to a heat-not-burn (smoke-free alternative (SW)) product or those observing smoking abstinence (SA), compared with continuing to use CC, for 5 days in confinement and prolonged by 85 days in an ambulatory setting. This was an ad libitum smoking study. Baseline measurements are taken by allowing the subject to smoke their chosen brand of conventional cigarette for 2 days. After this 2 day period, the subject is then elected to continue smoking conventional cigarettes, to switch to a smoke-free alternative or to abstain from smoking. The investigational period then begins. Methods for measuring each of the metabolites are described in Haziza et al. (2017) Data in Brief 10, 283-293.
# During the confinement period, compliance to product/regimen allocation (exclusive use of smoke-free alternative and CC in SW and CC arms, respectively, and full abstinence from smoking in the SA arm) was ensured by strict distribution of each tobacco stick/CC when requested by the subject. During the ambulatory period, the subjects randomized to the SW arm were instructed to exclusively use HNB products and subjects randomized to the SA arm were instructed to abstain from smoking.
# Furthermore, the data are represented as boxplots in the figures below. The bottom of the box is the first quartile (value below which 25% of the observations lie), the top is the third quartile (value below which 75% of the observations lie) and the middle bar is the median of the observations. The whiskers extend to the minimum observed value and maximum observe value respectively.
# [6] = cited from earlier work; remark: listed apart in the source
# [7] = cited from earlier work; for levels of total NNAL: smoking cessation study
# [8] = intravenous infusion of nicotine in abstinent adult smokers
# [9] = 15 CPD during 5-day confinement
# [10] = 20 CPD during 5-day confinement
# [11] = consumers of conventional cigarettes
# [12] = consumers of smoke-free alternatives
compound,measurement,setting,value
CN1C(=O)[C@H](O)C[C@H]1c1cccnc1 (relative stereo) [trans-3′-hydroxycotinine],share of the dose of nicotine accounted for by the metabolite,[1],40-60%
same,total clearance,[2]; in vivo,about 82 mL min-1
same,half-life,[2]; [8],6.6 h
"CC(=O)N[C@@H](CSCCC#N)C(=O)O [CEMA, 2-cyanoethylmercapturic acid]",levels of urinary CEMA,[3]; 0 CPD during 5-day confinement,38.3 μg/24 h
same,levels of urinary CEMA,[3]; 5 CPD during 5-day confinement,93.2 μg/24 h
same,levels of urinary CEMA,[3]; [9],168.0 μg/24 h
same,levels of urinary CEMA,[3]; [10],218.0 μg/24 h
same,CEMA excreted (mean±SD),[3]; non-smokers,4.6 ± 35 µg/L
same,"CEMA excreted (second value, 'or')",[3]; non-smokers,1.9 µg/L
same,"urinary excretion of CEMA, range",[3]; non-smokers,below 2 ng/mL
same,CEMA excreted (mean±SD),[3]; smokers,187 ± 181 µg/L
same,"CEMA excreted (second value, 'or')",[3]; smokers,184 µg/L
same,"urinary excretion of CEMA, range",[3]; smokers,20 to 205 ng/mL
same,lowering of CEMA levels in urine,[3]; smoking cessation studies of 5 to 8 days,7- to 10 fold
same,"baseline CEMA, range",[4]; [11],83-115 ng/mg creatinine
same,"baseline CEMA, value in brackets",[4]; [11],98 ng/mg creatinine
same,average increase at day 5 compared to baseline,[4]; [11],4.2%
same,"change at day 5 compared to baseline, range",[4]; [11],−4% to 12%
same,"CEMA at day 5, range",[4]; [11],85-115 ng/mg creatinine
same,"CEMA at day 5, value in brackets",[4]; [11],99.5 ng/mg creatinine
same,"baseline CEMA, range",[4]; [12],85-112 ng/mg creatinine
same,"baseline CEMA, value in brackets",[4]; [12],98 ng/mg creatinine
same,average decrease at day 5 compared to baseline,[4]; [12],−86%
same,"change at day 5 compared to baseline, range",[4]; [12],−87% to −85%
same,"CEMA at day 5, range",[4]; [12],11-15 ng/mg creatinine
same,"CEMA at day 5, value in brackets",[4]; [12],13 ng/mg creatinine
same,"baseline CEMA, range",[4]; smoking abstainers,89-119 ng/mg creatinine
same,"baseline CEMA, value in brackets",[4]; smoking abstainers,103 ng/mg creatinine
same,average decrease at day 5 compared to baseline,[4]; smoking abstainers,−86%
same,"decrease at day 5 compared to baseline, range",[4]; smoking abstainers,−88 to −85%
same,"CEMA at day 5, range",[4]; smoking abstainers,10-15 ng/mg creatinine
same,"CEMA at day 5, value in brackets",[4]; smoking abstainers,12 ng/mg creatinine
"CN1C(=O)CC[C@H]1c1cccnc1 [Free Cotinine, cotinine]",share of the dose of nicotine accounted for by the metabolite,[1],about 15%
same,Free Cotinine (ng/mL) SA,"[5]; Day 2, IQR, listed as cotinine",339 to 959 ng/mL
same,Free Cotinine (ng/mL) SA,"[5]; Day 2, IQR, listed as free cotinine",128 to 313 ng/mL
same,concentration at 2 day,"[5]; SW arm, Day 2, IQR, read-out: Free Cotinine (ng/mL) SW",546 to 1160 ng/mL
same,concentration at 2 day,"[5]; day 2, read-out: cotinine levels in conventional cigarette smokers",459 to 1350 ng/mL
same,cotinine levels indicative of heavy smoker status,[6]; consuming more than 20 cigarettes a day,above 300 ng/mL
same,cotinine levels indicative of no active smoking,[6]; in vivo,< 10 ng/mL
same,cotinine levels in active smokers,[6]; saliva,≥ 100 ng/mL
same,detectability after smoking abstinence,"[6]; urine, saliva or blood","no longer detectable in urine, saliva or blood after about two days of smoking abstinence"
same,cotinine levels in active smokers,[6]; urine,≥ 500 ng/mL
same,in vivo half-life,[2]; in vivo,about 20 hours
same,total clearance,[2]; in vivo,45 mL/min
same,half-life,[2]; [8],17.5 h
O=NN1CCC[C@H]1c1cccnc1 [NNN],detectability in the urine of non-smokers,[7],Neither NNAL nor NNN are in principle detectable
"CN(CCCC(O)c1cccnc1)N=O (stereo not shown) [Total NNAL, 4-(methylnitrosamino)-1-(3-pyridyl)-1-butanol]",Total NNAL (pg/mL) SW,"[5]; SW arm, Day 5, IQR",17 to 41 pg/mL
same,total NNAL levels in smoking abstainers,[5]; between day 5 and day 30,2.5 to 46 pg/mL
same,levels of urinary NNAL,[7]; 0 CPD during 5-day confinement,311 ng/24 h
same,levels of urinary NNAL,[7]; 5 CPD during 5-day confinement,422 ng/24 h
same,levels of urinary NNAL,[7]; [9],549 ng/24 h
same,levels of urinary NNAL,[7]; [10],624 ng/24 h
same,levels of total NNAL,[7]; after 28 days,0.26 nmol/24 h
same,levels of total NNAL,[7]; after 42 days,0.2 nmol/24 h
same,levels of total NNAL,[7]; baseline,2.70 nmol/24 h
same,levels of total NNAL,[7]; day 56,0.13 nmol/24 h
same,decrease of NNAL levels,[7]; smoking cessation/abstinence studies lasting 3 to 8 days,3- to 4 fold
same,detectability in the urine of non-smokers,[7],Neither NNAL nor NNN are in principle detectable
same,urine levels in non-smokers using other tobacco or nicotine replacement products or exposed to second-hand smoke,[7]; urine,~0.1 nmol
same,half-life,"[7]; usually measured in the urine, estimated",17 h
same,"baseline total NNAL, range",[4]; [11],84-131 pg/mg creatinine
same,"baseline total NNAL, value in brackets",[4]; [11],105 pg/mg creatinine
same,average increase at day 5 compared to baseline,[4]; [11],3.9%
same,"change at day 5 compared to baseline, range",[4]; [11],−2.8% to 10.5%
same,"total NNAL at day 5, range",[4]; [11],85-133 pg/mg creatinine
same,"total NNAL at day 5, value in brackets",[4]; [11],107 pg/mg creatinine
same,"baseline total NNAL, range",[4]; [12],95-129 pg/mg creatinine
same,"baseline total NNAL, value in brackets",[4]; [12],111 pg/mg creatinine
same,average decrease at day 5 compared to baseline,[4]; [12],−54%
same,"change at day 5 compared to baseline, range",[4]; [12],−57% to −51%
same,"total NNAL at day 5, range",[4]; [12],42-58 pg/mg creatinine
same,"total NNAL at day 5, value in brackets",[4]; [12],49 pg/mg creatinine
same,"baseline total NNAL, range",[4]; smoking abstainers,94-150 pg/mg creatinine
same,"baseline total NNAL, value in brackets",[4]; smoking abstainers,119 pg/mg creatinine
same,average decrease at day 5 compared to baseline,[4]; smoking abstainers,−63.9%
same,"decrease at day 5 compared to baseline, range",[4]; smoking abstainers,−67 to −61%
same,"total NNAL at day 5, range",[4]; smoking abstainers,31-54 pg/mg creatinine
same,"total NNAL at day 5, value in brackets",[4]; smoking abstainers,41 pg/mg creatinine
C[N+]1([O-])CCC[C@H]1c1cccnc1 (stereo partly shown) [nicotine-1′-N-oxide],share of the nicotine absorbed by smokers (minor metabolite),[2]; in vivo,4-7%
CN1CCCC1c1cccnc1 (stereo not shown) [nicotine],half-life,"[2]; in vivo, iv",2.3 h
same,share of the inhaled amount metabolized by the liver (first pass effect),[2]; in vivo,80-90%
same,total clearance,[2]; in vivo,about 1200 mL min-1
